# Values quoted from earlier work, collected in article PMC3085958 (Journal of medicinal chemistry, 2011).
# Marks after values point to notes of the source that are not given here.
# Biological target: CB2 receptors (Homo sapiens, UniProt P34972)
# Conditions: Kb value
# Sequence of CB2 receptors (P34972 whole entry): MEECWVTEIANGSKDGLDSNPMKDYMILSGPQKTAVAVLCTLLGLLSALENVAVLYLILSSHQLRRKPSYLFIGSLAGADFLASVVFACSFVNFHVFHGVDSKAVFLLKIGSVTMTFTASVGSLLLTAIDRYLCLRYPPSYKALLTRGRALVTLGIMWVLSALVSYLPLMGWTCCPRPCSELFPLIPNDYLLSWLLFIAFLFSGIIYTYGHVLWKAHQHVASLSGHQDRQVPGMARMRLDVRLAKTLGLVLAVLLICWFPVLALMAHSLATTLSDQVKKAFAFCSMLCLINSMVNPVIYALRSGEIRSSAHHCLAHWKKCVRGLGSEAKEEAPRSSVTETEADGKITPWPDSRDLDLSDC
smiles,measurement,value
COc1cccc([C@H]2C[C@@H](N[C@H](C)c3ccccc3)C(=O)N2c2ccc(C(F)(F)F)cc2)c1 [Ligand 3],CB2 Kb (in the CB2 Ki column),"> 1,980 ^c nM"
